# Assay results: a melting point compilation (Tetko et al.; mined from patent text by program, amines drawn as free bases though some values may be those of a salt)
row,SMILES,melting point [°C]
1,CC(Cc1ccc(OCCCCCCCCCCCO)cc1)NCC(O)c1cccc(C(F)(F)F)c1 (stereo not given),45 to 50
2,O=C(Nc1nnc(C2CC2)o1)C1c2ccccc2Oc2ccccc21,246 to 248
3,CN(C)Cc1[nH]c2ccccc2c1Cn1ccnc1,153 to 156
4,CCC(NC(=NC#N)Nc1ccc(N)nc1)c1ccccc1 (stereo not given),178
5,O=C(Cc1ccc(Cl)cc1)Nc1ccc(O)cc1O,178 to 179
6,CCOc1ccccc1C=[N+]([O-])C1CCC1,76
7,CC(C)c1ccc(-c2c(Cl)ncnc2Cl)cc1,69 to 70
8,CCCN(CC(=O)Nc1cnc(C)nc1N(CC)CC)c1ccccc1,96.6 to 98.1
9,NNC(=O)c1nn(Cc2ccc(Cl)cc2Cl)c2ccccc12,161 to 162
10,CC(=O)NC12CCC(CC1)C2(C)C,133 to 134
11,COc1ccc(S(=O)(=O)N2CCc3cccc(-c4ccc(C(F)(F)F)cc4)c32)cc1,180 to 181
12,O=S(=O)(Nc1ccc(Cl)cc1C(=NOc1ccc(Cl)cc1)c1ccccc1)C(F)(F)F,86 to 87
13,COc1ccc2ccc(O)c(C=O)c2c1,126
14,C[C@@H]1CN(c2ncc(Cl)cc2Cl)CCN1c1nc2c(Br)cc(C(F)(F)F)cc2[nH]1,135 to 137
15,Cc1nc(C(F)(F)F)ccc1/C=C/C(=O)Nc1ccc2[nH]ccc2c1,231
16,CC(=O)N(C)C1CCC(=O)c2ccccc21 (stereo not given),101 to 103
17,O=C(O)c1cc(-c2ccc(OCc3ccccc3)cc2)c(=O)n2ccc3ccsc3c12,197 to 199
18,COC(=O)c1ccc(OCCCN2C(=O)c3ccccc3C2=O)c(OC)c1,127 to 128
19,O=C(O)CCc1cn(Cc2ccc(OCc3cccnc3)cc2)nc1OCc1cccnc1,116 to 117
20,Fc1ccc(-c2ccccc2)c(F)c1,63 to 65
21,Cc1ccc(C2c3c(C)c(N4CCN(c5ccc(F)cc5)CC4)c(C)c(C)c3OC2(C)C)cc1 (stereo not given),159 to 162
22,O=C(C(=O)c1ccc(C(F)(F)F)cc1)c1ccncc1,70 to 72
23,O=C1NC(=O)c2c1c(-c1ccccc1Cl)cc1[nH]c3ccc(CCO)cc3c21,253 to 257
24,CCCN(CCC)CC(=O)Nc1ncc(Oc2cc(I)c(OC)cc2C(C)C)c(N)n1,129 to 131
25,Nc1cc(C2CC2)nn1C(=O)Nc1ccccc1,97 to 99

row,SMILES,melting point [°C]
1,CCOC(=O)c1cc2cc(N=[N+]=[N-])ccc2[nH]1,140
2,CCCCOC(=O)NC(=O)C(C)(c1ccccc1)c1ccccc1,83
3,CCCCCCCc1cnc(-c2ccc(CCC(=O)OCC(F)(F)C(F)F)cc2)nc1,42
4,O=C(c1ccc(SC2SCC(O)C(O)C2O)cc1)C(F)(F)F (stereo not given),133 to 134
5,CN(C)C=C(C#N)C(=O)Nc1ccccc1,162 to 164
6,CCCCNC(=O)C(c1ccccc1)c1ccccc1,96
7,Cn1c2c(ccc1=O)C(NCCc1ccc([N+](=O)[O-])cc1)CCC2 (stereo not given),138 to 139
8,CC(C)NC1=NS(=O)(=O)c2ccc(C(F)(F)F)cc2N1,294 to 297
9,O=c1[nH]c2ncc(-c3cncnc3)nc2n1CC1CCCCC1,> 260
10,COC(=O)c1cnc(Cl)c(OC)c1,83 to 85
11,CCN(CC)Cc1c(Cl)ccc2cc(Cl)cnc12,54
12,N#CCOc1cc2c(cc1-c1ccc(F)cc1)NC(=O)CC(c1cccc(-n3ccnc3)c1)=N2,164
13,CCCCc1nc(C(=O)C(C)(C)C)c(C#N)n1Cc1ccc(-c2ccccc2-c2nnnn2C(c2ccccc2)(c2ccccc2)c2ccccc2)cc1,103 to 105
14,O=c1cc(OCc2ccccc2)cc(CC(O)c2ccc(OCc3ccccc3)c(OCc3ccccc3)c2)o1 (stereo not given),109 to 110
15,CC(C)(C)OC(=O)NC(Cc1ccc(OC(=O)OCc2ccccc2)cc1)C(=O)O (stereo not given),84 to 85
16,NC(=O)N(CCCl)C(c1ccccc1)P(=O)(O)O (stereo not given),195
17,O=C1OCCC1C1CCc2c1[nH]c1ccccc21 (stereo not given),155 to 157
18,CCC(=O)Nc1ccc(Cl)c(COc2cccn3c(Br)c(C)nc23)c1Cl,205 to 207
19,O=P1(c2ccc(Cl)cc2)c2ccccc2CN1c1ccccc1 (stereo not given),180 to 182
20,C(=C\c1nc(COc2ccc(CCCn3cnnn3)cc2)co1)/c1ccccc1,147 to 148
21,NC(=O)C1(N2CCCCC2)CCN(Cc2ccccc2)CC1,150 to 160
22,CCOC(=O)C(C#N)=CNNc1ccc(C(F)(F)F)cc1[N+](=O)[O-],163 to 164
23,CC[C@@H](C)[C@H](CC(C(=O)O)C(=O)O)C(=O)OC,98
24,COC(=O)C1=C(C)NC(C)=C(C(=O)CS(=O)(=O)N(C)C)C1c1cccc([N+](=O)[O-])c1 (stereo not given),154 to 157
25,N#Cc1ccc2c(c1)[nH]c(=S)n2NC(=O)c1ccc(Cl)c(S(N)(=O)=O)c1,315
